Laboratory results published in patent publication US5508288A, “Indole derivatives as 5HT1C antagonists” (SmithKline Beecham, p.l.c., priority 1992, dated 1996).

Assays:
[1] = system: rat stomach fundus seretonin receptor; settings: J. Med. Chem. 1986 29 2415-2418; cited from earlier work
5-HT1C receptors [2] = biological target: T1, 5-HT1C receptors (Rattus norvegicus, UniProt P08909); settings: rats; literature (Kennett and Curzon); cited from earlier work
T1 construct: tissue Charles River; host or cells: whole animal, male Sprague Dawley rats (central receptors, in vivo)
T1 sequence (P08909 33-460): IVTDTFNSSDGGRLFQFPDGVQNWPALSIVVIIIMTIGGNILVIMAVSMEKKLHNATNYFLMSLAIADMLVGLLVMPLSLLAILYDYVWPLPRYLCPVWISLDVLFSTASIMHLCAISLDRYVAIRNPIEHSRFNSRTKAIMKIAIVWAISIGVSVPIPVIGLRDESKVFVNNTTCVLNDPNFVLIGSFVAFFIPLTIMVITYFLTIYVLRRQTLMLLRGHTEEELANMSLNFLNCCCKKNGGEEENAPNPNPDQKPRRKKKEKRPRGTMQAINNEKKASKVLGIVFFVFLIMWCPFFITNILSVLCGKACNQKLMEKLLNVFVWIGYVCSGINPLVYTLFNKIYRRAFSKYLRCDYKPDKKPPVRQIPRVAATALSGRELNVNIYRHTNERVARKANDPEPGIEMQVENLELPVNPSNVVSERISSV

5-HT1C -like Receptors = biological target: T2, 5-HT1C -like Receptors (Rattus norvegicus, UniProt P30994); experiment: Rat fundic strip, antagonism of 5-HT; settings: agonist 5-HT, read-out: pA2 (converted)
T2 construct: tissue Charles River; host or cells: stomach fundus strips of male CD rats
T2 sequence (P30994 whole entry): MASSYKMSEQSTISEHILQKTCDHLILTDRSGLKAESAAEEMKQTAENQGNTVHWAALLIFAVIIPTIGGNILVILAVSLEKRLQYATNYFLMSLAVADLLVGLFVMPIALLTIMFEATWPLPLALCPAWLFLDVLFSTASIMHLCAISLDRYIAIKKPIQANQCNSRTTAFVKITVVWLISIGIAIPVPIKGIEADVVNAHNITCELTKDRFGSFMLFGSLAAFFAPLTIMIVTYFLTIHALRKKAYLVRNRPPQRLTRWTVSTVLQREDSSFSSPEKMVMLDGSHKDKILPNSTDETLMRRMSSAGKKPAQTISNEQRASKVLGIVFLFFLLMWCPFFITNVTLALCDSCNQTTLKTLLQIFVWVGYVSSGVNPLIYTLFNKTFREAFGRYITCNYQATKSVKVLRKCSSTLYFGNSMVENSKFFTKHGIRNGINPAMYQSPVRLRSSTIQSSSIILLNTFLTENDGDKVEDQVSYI
From the text: The 5-HT receptor in the rat fundic strip (RFS) has been characterised as `5-HT1C -like` as its pharmacology is similar, but not identical, to that of rat 5-HT1C receptor dones.
Whole stomachs were obtained from male CD Rats (Charles River, 250-350 g). Strips of fundus (2 cm×0.5 cm) were cut from the greater curvature and the mucesae carefully removed. Tissues were then further dissected into smaller strips (2 mm×20 mm) which were mounted in organ baths containing oxygensted Tyrodes solution at 37° C. containing indomethacin (3 μM). Preparations were maintained under a resting tension of 0.5 g and exposed to the irreversible MAO inhibitor pargyline (100 μM for 30 minutes followed by washout). Over a 1 h equilibration period, rat fundic strips were challenged with 1×10^-8 M 5-HT at 15 minute intervals until constant responses were obtained. Fifteen minutes later, a complete cumulative concentration-effect curve to the standard agonist 5-HT (1×10^-10 upwards) was constructed to determine the individual sensitivity of each preparation. A further concentration-effect curve to either 5-HT, or other agonists was constructed no sooner than 1 h after completion of the previous curve. When necessary tissues were equilibrated with the antagonists over this one hour period. Antagonists affinities are expressed as pA2 estimates.

5-HT1C receptors [3] = biological target: T1, 5-HT1C receptors; experiment: Reversal of mCPP-induced hypolocomotion; format: in vivo; settings: po, p.o. 1 h pretest, mCPP 7 mg/kg i.p., male Sprague Dawley rats, read-out: ID50 (the source's name)
From the text: This effect was blocked by the non specific 5-HT1C /5-HT2 receptor antagonists mianserin, cyproheptadine and metergoline and perhaps by mesulergine. It was not blocked by the 5-HT2 receptor antagonists ketanserin and ritanserin at relevant doses (Kennett and Curzon 1991) nor by antagonists of 5-HT1A, 5-HT1B, 5-HT3, α2 adrenoceptors or dompamine D2 receptors. The effect of mCPP is therefore considered to be mediated by 5-HT1C receptors (Kennett and Curzon 1988) as confirmed by subsequent studies (Lucki et al., 1989). Since mCPP causes hypolocomotion when infused into the cerebral ventricles this effect is probably centrally mediated (Kennett and Curzon 1988).
mCPP-induced hypolocomotion was measured in automated locomotion cages of dimensions 56 cm long×161/2× cm wide×25 cm high and made of black perspex. Two photobeams traversed the width of the cages at either end at ground level. Sequential breaking of these beams allowed the measurement of cage transits.
Male Sprague Dawley rats (200-250 g) (Charles River) were housed in groups of six. They were given drugs orally 1 h pretest and 40 mins later mCPP (7 mg/kg i.p.). After a further 20 min they were placed in individual automated cages in groups of four under red light in an adjacent room. After 10 min the test was terminated. […]

| SMILES | block of mCPP-induced hypolocomotion (5-HT1C receptors [2]) | further results |
| --- | --- | --- |
| CCc1c(C)n(C)c2ccc(NC(=O)Nc3cccc(C(F)(F)F)c3)cc12 [N-(1,2-dimethyl-3-ethyl-1H-indol-5-yl)-N'-(3-trifluoromethylphenyl)urea] |  | selectivity for the rat stomach fundus serotonin receptor [1]: shows selectivity |
| CN1CCN2c3ccccc3Cc3ccccc3C2C1 (stereo not shown) [mianserin] | blocked |  |
| Cc1cc(NC(=O)Nc2ccc3c(ccn3C)c2)sn1 [Example 5, N-(1-Methyl-5-indolyl)-N'-(3-methyl-5-isothiazolyl) urea] |  | Kb (5-HT1C -like Receptors): 12.6 nM |
| CN1C[C@H](CNC(=O)OCc2ccccc2)C[C@@H]2c3cccc4c3c(cn4C)C[C@H]21 [metergoline] | blocked |  |
| CN1CCC(=C2c3ccccc3C=Cc3ccccc32)CC1 [cyproheptadine] | blocked |  |
| Cn1ccc2cc(NC(=O)Nc3cccnn3)ccc21 [Example 2, N-(1-Methyl-5-indolyl)-N'-(3-pyridazinyl) urea] |  | ED50 (5-HT1C receptors [3]): 47 mg/kg |
| Cn1ccc2cc(NC(=O)Nc3cncnc3)ccc21 [Example 3, N-(1-Methyl-5-indolyl)-N'-(5-pyrimidinyl) urea] |  | ED50 (5-HT1C receptors [3]): 43.7 mg/kg |
| Cc1nc2sccn2c(=O)c1CCN1CCC(=C(c2ccc(F)cc2)c2ccc(F)cc2)CC1 [ritanserin] | not blocked |  |
| O=C(c1ccc(F)cc1)C1CCN(CCn2c(=O)[nH]c3ccccc3c2=O)CC1 [ketanserin] | not blocked |  |
| CN1C[C@@H](NS(=O)(=O)N(C)C)C[C@@H]2c3cccc4c3c(cn4C)C[C@H]21 [mesulergine] | perhaps |  |
